Laboratory results published in patent US20090075888A1, “Cardiovascular and Brain Cell Therapy Using Intracellular Ryanodine Receptor Modulation by the Estrogen Receptor Beta” (University of North Texas Health Science Center at Fort …, priority 2007, published 2009).

Biological target: mouse brain RyR2 (Mus musculus, UniProt E9Q401)
Assay: Single-channel current recordings of RyR2 incorporated in artificial lipid bilayer

mouse brain RyR2, sequence (E9Q401 whole entry): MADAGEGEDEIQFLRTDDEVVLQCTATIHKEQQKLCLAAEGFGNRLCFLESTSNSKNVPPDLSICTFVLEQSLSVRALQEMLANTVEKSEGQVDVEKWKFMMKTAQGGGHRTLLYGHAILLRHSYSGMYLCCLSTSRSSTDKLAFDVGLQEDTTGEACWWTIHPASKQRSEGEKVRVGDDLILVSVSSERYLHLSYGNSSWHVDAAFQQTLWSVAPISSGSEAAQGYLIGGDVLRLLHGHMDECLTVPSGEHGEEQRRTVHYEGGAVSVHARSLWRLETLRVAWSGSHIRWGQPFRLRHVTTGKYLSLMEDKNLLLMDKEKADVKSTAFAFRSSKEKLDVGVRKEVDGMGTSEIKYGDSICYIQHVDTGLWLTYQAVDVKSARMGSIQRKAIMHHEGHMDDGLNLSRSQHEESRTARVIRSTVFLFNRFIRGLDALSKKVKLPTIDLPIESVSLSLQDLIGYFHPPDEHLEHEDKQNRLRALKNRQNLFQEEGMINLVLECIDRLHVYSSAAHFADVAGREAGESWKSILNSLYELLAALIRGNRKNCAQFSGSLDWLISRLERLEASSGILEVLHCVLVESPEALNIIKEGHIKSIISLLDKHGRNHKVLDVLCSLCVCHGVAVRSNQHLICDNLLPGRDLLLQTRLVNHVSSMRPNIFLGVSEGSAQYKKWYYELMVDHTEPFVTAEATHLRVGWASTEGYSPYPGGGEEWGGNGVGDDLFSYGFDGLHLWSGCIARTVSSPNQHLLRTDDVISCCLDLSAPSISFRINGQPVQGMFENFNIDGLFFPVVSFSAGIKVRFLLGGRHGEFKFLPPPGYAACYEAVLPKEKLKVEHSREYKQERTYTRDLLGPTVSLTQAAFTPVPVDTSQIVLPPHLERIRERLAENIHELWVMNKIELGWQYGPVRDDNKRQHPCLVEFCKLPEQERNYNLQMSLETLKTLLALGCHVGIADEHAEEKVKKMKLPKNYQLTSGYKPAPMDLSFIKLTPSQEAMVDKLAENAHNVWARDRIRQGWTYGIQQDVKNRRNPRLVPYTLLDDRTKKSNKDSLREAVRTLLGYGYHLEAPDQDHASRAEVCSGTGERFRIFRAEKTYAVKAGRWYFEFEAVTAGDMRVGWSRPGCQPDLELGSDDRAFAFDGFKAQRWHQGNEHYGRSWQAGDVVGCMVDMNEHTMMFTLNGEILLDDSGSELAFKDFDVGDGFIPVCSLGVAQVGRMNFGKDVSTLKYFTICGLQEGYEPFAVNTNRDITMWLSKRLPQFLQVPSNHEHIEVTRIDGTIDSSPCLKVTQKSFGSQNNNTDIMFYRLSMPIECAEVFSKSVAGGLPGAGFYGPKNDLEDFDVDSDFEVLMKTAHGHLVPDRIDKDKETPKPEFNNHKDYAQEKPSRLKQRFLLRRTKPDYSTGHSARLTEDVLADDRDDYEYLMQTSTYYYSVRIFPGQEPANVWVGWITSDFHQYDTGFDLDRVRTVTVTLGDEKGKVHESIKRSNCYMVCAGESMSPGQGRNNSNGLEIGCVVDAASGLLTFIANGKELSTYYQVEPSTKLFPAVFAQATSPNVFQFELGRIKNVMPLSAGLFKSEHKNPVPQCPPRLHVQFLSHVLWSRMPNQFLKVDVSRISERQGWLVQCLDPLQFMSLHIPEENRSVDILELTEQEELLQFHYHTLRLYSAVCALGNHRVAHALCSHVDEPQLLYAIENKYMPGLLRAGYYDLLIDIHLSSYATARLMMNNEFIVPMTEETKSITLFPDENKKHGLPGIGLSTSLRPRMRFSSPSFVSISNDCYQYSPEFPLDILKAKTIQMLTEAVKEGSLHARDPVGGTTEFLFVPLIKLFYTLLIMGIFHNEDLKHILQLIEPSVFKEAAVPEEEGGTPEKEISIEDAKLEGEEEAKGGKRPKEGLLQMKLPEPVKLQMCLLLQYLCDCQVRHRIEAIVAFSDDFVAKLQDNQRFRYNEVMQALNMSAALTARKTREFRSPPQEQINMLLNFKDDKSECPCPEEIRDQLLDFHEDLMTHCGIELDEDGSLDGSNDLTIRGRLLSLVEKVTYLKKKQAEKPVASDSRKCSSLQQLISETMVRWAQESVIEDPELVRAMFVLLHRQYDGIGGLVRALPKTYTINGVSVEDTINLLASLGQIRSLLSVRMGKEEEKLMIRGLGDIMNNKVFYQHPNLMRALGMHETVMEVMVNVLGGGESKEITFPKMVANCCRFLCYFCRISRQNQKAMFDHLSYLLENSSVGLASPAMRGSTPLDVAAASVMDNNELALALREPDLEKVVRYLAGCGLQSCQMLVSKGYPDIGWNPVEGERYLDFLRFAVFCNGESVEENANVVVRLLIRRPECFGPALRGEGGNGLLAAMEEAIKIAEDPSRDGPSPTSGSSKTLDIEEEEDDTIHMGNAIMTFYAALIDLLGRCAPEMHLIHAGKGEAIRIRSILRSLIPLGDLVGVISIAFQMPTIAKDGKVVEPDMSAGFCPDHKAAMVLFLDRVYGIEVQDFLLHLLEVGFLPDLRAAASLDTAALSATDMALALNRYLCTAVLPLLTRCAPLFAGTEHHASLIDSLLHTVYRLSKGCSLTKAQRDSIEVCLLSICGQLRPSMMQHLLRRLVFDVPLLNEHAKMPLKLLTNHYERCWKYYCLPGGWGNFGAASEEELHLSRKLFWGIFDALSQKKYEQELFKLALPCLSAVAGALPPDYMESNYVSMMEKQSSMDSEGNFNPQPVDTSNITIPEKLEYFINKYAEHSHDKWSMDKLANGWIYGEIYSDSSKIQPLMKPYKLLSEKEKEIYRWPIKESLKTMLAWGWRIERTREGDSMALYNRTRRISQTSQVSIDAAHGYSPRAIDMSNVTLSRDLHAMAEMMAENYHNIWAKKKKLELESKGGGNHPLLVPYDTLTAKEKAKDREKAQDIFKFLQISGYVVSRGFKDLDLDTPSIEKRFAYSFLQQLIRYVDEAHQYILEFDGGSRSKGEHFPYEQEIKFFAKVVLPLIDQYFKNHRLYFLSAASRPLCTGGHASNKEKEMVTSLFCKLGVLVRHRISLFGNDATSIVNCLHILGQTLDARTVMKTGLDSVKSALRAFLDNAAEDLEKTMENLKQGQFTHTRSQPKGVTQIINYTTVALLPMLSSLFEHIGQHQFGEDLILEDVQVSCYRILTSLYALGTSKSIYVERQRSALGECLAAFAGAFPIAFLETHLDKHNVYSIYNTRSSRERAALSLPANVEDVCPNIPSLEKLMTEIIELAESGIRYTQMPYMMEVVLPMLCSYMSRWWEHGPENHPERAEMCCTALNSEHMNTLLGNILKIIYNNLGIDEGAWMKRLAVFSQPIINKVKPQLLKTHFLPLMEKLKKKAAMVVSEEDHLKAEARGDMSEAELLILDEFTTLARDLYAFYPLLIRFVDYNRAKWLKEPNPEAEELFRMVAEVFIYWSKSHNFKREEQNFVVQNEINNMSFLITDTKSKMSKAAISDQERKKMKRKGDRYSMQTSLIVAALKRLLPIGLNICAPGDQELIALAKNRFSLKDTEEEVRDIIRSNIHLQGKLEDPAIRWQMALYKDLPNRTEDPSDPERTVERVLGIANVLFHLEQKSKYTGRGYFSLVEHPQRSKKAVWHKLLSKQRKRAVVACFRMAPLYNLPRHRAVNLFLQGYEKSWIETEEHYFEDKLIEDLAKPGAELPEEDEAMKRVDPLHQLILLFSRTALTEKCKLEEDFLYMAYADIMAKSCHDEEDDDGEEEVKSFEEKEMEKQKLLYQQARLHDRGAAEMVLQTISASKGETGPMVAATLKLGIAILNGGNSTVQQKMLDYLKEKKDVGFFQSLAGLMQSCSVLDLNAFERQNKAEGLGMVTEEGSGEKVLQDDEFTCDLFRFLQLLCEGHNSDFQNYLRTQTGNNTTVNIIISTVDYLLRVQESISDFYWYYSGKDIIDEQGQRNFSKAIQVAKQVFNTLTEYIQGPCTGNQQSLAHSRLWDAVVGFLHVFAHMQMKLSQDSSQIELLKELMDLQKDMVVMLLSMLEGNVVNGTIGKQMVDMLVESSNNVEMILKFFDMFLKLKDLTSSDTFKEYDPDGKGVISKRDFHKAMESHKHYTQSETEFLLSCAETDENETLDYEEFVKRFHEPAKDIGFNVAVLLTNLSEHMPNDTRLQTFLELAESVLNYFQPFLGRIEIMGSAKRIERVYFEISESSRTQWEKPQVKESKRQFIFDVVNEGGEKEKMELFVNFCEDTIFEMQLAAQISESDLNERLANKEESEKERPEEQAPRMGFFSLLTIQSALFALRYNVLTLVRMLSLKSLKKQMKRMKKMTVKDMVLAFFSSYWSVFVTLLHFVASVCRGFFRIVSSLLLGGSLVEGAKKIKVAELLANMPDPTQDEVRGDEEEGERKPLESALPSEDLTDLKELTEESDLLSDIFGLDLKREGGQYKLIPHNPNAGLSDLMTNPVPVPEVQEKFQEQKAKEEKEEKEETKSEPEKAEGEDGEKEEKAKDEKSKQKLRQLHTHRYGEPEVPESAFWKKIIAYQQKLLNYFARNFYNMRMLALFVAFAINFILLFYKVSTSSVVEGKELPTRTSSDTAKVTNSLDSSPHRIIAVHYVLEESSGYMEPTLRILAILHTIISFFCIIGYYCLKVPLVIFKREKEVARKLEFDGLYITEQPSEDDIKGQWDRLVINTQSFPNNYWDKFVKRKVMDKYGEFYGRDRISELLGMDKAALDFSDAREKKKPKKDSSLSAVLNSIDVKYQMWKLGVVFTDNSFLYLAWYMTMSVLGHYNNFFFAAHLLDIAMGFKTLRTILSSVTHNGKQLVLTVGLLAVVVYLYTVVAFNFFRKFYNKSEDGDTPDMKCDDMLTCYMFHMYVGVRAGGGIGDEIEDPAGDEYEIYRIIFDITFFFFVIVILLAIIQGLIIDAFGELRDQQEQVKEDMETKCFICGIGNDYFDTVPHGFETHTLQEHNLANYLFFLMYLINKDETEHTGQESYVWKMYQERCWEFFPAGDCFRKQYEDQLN

block of ERβ-activated RyR2 single channel currents (20 μM Ruthenium Red after ERβ (FIG. 1A)): blocked | RyR channel block (25 μM ruthenium red after ERβ (FIG. 10A, 11A)): complete channel block
SMILES: N.N.N.N.N.N.N.N.N.N.N.N.N.N.[Cl-].[Cl-].[Cl-].[Cl-].[Cl-].[Cl-].[O-2].[O-2].[Ru+3].[Ru+3].[Ru+4] [Ruthenium Red]
